Test system: Vero cells
Test: Senescence induction in Vero cells by chemical stressors (growth, cell size)
Assay type: cell-based, African monkey
Conditions: for cell growth of stressor-treated cells: 200 μM H2O2, 4 μM sodium butyrate, 25 μM Bleomycin Sulphate for 36-48 hours, growth over 48 h
Procedure: To test the generality of any senescent treatment, the inventors used four different methods to cause Vero cell senescence, replicative, hydrogen peroxide, sodium butyrate and Bleomycin sulfate. Senescence was measured as a decreased growth rate, increased O-gal activity, increased cell size, and secretion of pro-inflammatory factors called SASP. All four criteria were met with each type of senescent cells (FIGS. 1A to 1G). […] (FIG. 1B). There were significant differences in the size of the senescent cells with bleomycin sulfate-treated cells being the largest and replicative senescent cells the smallest (FIGS. 1C and 1D). To assay for SASP activity, the inventors cultured the senescent cells overnight and collected the supernatant from each dish. Supernatants were diluted 1:1 with fresh media and added to normal control cells. The change in normal cell number was measured after a 48 hour incubation. […] When β-galactosidase levels were measured by antibody staining, there was a relatively uniform increase in levels (FIGS. 1F and 1G). Thus, by all four criteria, the four different types of senescent cells were indeed senescent.
Senescence induction and quantification. Vero cells were treated with various stressors including 200 μM H2O2, 4 μM of sodium butyrate (SB), and 25 μM of Bleomycin Sulphate (BS) and incubated for 36-48 hours. After washing with PBS and then replacing growth medium with fresh medium, cells were incubated for 4 days to confirm the growth arrest of senescent cells. […] The inventors used four criteria to determine if cells were senescent; (1) Cell cycle arrest by determining the growth rate, (2) Increase in cell spread area, (3) Development of senescence associated secretory phonotype (SASP) in culture medium, and (4) beta-gal staining. The inventors captured images of cells with an Evos microscope at 10× magnification after treatment and 48 hours post treatment. To measure growth by the increase in cell number, 15 random images were captured, then the average number of cells were determined, which was divided by the area of one frame to get the cell density (cells/cm^2). Then this seeding density was multiplied by the total area of the dish or well to obtain the total number of cells after US treatment and after 48 hours if incubation. The total number of cells at 48 hours was divided by the total number of cells just after the treatment to determine the growth rate. If the ratio was one, there was no growth.
Senescence was detected by the beta-gal senescence staining kit as per manufacturer's protocol. […] The percentages of beta-gal positive cells were determined by counting the number of blue cells and dividing by the total number of cells. Cell spread area was determined by capturing the mages of cells with a 10× objective using an Evos microscope. […]

Row | Compound | cell growth of stressor-treated cells | size of the senescent cells (comparison among types of senescent cells)
1 | Bleomycin sulfate | cell growth was effectively blocked | largest
2 | OO [hydrogen peroxide] | cell growth was effectively blocked | 
3 | CCCC(=O)[O-].[Na+] [sodium butyrate] | cell growth was effectively blocked | 
